Values of other authors as cited in patent US20040223951A1, “Combination therapy for cancer” (Schering Corporation, priority 2000, published 2004).

Experiments:
[1] = administered orally

bioavailability [1]: approximately 100%
Compound: Cn1nnc2c(C(N)=O)ncn2c1=O [Temozolomide, 3,4-dihydro-3-methyl-4-oxoimidazo-[5,1-d]1,2,3,4-tetrazin-8-carboximide]
plasma concentration of active metabolite MTIC versus conventional dosing (extended daily dosing of TMZ, Brock et al. Cancer Res. 1998;58:4363): higher plasma concentration of the active metabolite MTIC than conventional dosing
plasma concentrations of MTIC versus DTIC (oral TMZ compared with IV DTIC): higher plasma concentrations of MTIC than IV administration of DTIC
clinical response, % of patients with advanced melanoma (advanced melanoma; Journal of Clinical Oncology, Vol. 13, No. 4, 1995, pp. 910-913): 21%
clinical responses, % of patients having advanced melanoma (advanced melanoma; Newlands ES, et al., Br J Cancer 65 (2) 287-291, 1992): 17%
